Measured values taken from paper PMC5161551 (Nature chemical biology, 2016).

Key:
[1] = biological target: T1, ERα (Mus musculus, UniProt P19785); assay: ERα+ cells in mouse uterus; type: in vivo; conditions: mouse uterine tissue after the uterotrophic assay
T1 sequence (P19785 1-599): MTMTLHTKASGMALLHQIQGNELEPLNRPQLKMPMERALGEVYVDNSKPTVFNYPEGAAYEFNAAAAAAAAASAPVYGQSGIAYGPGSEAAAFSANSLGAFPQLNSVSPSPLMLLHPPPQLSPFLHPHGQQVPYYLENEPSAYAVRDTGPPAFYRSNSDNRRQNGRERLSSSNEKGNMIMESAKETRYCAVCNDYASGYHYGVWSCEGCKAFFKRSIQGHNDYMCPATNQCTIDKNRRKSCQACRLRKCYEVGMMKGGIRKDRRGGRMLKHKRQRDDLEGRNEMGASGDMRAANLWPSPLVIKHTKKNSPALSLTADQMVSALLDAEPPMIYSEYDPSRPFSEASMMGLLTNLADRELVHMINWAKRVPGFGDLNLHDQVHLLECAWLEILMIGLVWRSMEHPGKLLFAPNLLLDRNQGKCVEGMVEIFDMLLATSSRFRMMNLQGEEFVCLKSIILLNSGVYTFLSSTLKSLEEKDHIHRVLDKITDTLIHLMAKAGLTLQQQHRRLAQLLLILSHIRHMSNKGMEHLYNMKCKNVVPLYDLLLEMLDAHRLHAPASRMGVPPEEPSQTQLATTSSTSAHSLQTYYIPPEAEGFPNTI

[2] = test system: IL-6; assay: TNFα-induced IL-6 secretion in MCF-7 cells; type: cell-based, human; conditions: MCF-7, 10 ng/ml TNFα, ligand 10 μM, 24 hr
[3] = test system: complement component C3, lactoferrin, and aquaporin 5; assay: Uterine expression of E2-regulated genes; type: in vivo, mouse; conditions: ovariectomized mice, 4 days
[4] = test system: uterus of ovariectomized mice; assay: Mouse uterotrophic assay; type: in vivo; conditions: 240 μg in combination with E2 (10 ng), sc, 4 days

- ERα expression in uterus (ERα+ cells) [1]: robustly inhibited ERα expression
SMILES: C[C@]12CC[C@@H]3c4ccc(O)cc4C[C@@H](CCCCCCCCC[S+]([O-])CCCC(F)(F)C(F)(F)F)[C@H]3[C@@H]1CC[C@@H]2O (some centres unmarked) [fulvestrant]
- inhibition of TNFα-induced IL-6 secretion [2]: did not inhibit IL-6 secretion
- effect on E2-stimulated expression of genes in uterus ([3]; 240 μg in combination with E2 (10 ng)): markedly reduced the E2-stimulated expression levels of these genes
- expression of E2-induced genes in uterus (compound alone) ([3]; 240 μg): failed to increase the expression of E2-induced genes
- effect on E2-stimulated uterine growth [4]: significantly reduced the E2-stimulated uterine growth
